Reference: patent US20240059703A1 (AMGEN INC., priority 2021, published 2024)

How the values were obtained:
[1] = target: KRAS G12C (Homo sapiens (Human), UniProt P01116, C118A/G12C); assay: 2 h coupled exchange assay; assay type: biochemical; conditions: Avg 2 h Coupled exchange IC50, 2 h compound pre-incubation, SOS-mediated nucleotide exchange
Description: The term “2 h coupled exchange assay” or “20 h coupled exchange assay” as used herein refers to the assay described in the Section entitled “BIOLOGICAL EVALUATION.”

[2] = tested on: A549 (human lung carcinoma) cells; assay: Cell Viability Assay (CellTiter-Glo), A549; assay type: cell-based; conditions: Homo sapiens, A549, 72 h
Outline: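 Seeding at 1.67E+04 cells/mL is followed by overnight attachment at 37° C., 5% CO2. Serially diluted compound is added for 72 h. Viability is read by CellTiter-Glo luminescence, scaled to DMSO and fitted (4-parameter logistic) to give IC50.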

[3] = tested on: MIA PaCa-2 (human pancreatic carcinoma) cells; assay: Cell Viability Assay (CellTiter-Glo), MIA PaCa-2; assay type: cell-based; conditions: Homo sapiens, MIA PaCa-2, 72 h
Description: Serially-diluted compound or DMSO was added to the cells, and plates were incubated at 37° C., 5% CO2 for 72 h. Cell viability was measured using a CellTiter-Glo® Luminescent Cell Viability Assay kit (Promega) according to the manufacturer's protocol. The luminescence signal of treated samples was normalized to DMSO control, and data were analyzed using a 4-parameter logistic model to calculate IC50 values.

Chain of KRAS G12C (P01116 other isoform, or with tags, fused parts or gaps G12C/C118A): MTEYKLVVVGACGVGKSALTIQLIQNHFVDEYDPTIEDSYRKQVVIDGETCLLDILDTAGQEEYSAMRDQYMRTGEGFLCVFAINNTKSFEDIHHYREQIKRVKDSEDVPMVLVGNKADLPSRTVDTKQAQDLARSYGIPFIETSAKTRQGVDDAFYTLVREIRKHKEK

Row | IC50 [1] | IC50 [2] | IC50 [3] | Compound
1 | 0.402 µM | > 25 µM | 2.28 µM | C=CC(=O)N1CC2(CCN(c3cn4c(C)cnc4c(-c4c(C)ccc5[nH]ncc45)c3C#N)C2)C1 [Example 1-37, 3-methyl-8-(5-methyl-1H-indazol-4-yl)-6-(2-(2-propenoyl)-2,6-diazaspiro[3.4]octan-6-yl)imidazo[1,2-a]pyridine-7-carbonitrile]
2 | 0.103 µM | 6.25 µM | 0.294 µM | C=CC(=O)N1CC2(CCN(c3cn4cc(-c5ccccc5)nc4c(-c4c(C)ccc5[nH]ncc45)c3C#N)C2)C1 [Example 1-38, 8-(5-methyl-1H-indazol-4-yl)-2-phenyl-6-(2-(2-propenoyl)-2,6-diazaspiro[3.4]octan-6-yl)imidazo[1,2-al]yridine-7-carbonitrile]
3 | 0.757 µM | 6.25 µM | 2.75 µM | C=CC(=O)N1CC2(C1)CN(c1nc3c(F)cccc3c(-c3c(C)ccc4[nH]ncc34)c1C#N)CC2(F)F [Example 1-39, 2-(8,8-difluoro-2-(2-propenoyl)-2,6-diazaspiro[3.4]octan-6-yl)-8-fluoro-4-(5-methyl-1H-indazol-4-yl)-3-quinolinecarbonitrile]
4 | 0.882 µM | > 5 µM | > 5 µM | C=CC(=O)N1CC2(CCN(c3nc(-c4c(C)ccc5[nH]ncc45)c4ccc(OC)cc4n3)C2)C1 [Example 1-41, 1-(6-(7-methoxy-4-(5-methyl-1H-indazol-4-yl)-2-quinazolinyl)-2,6-diazaspiro[3.4]octan-2-yl)-2-propen-1-one]
5 | 0.456 µM | 22.8 µM | 5.92 µM | C=CC(=O)N1CC2(CCN(c3nc4c(c(-c5cccc6cccc(C)c56)n3)OCCC4)C2)C1 [Example 1-42, 1-(6-(4-(8-methyl-1-naphthalenyl)-7,8-dihydro-6H-pyrano[3,2-d]pyrimidin-2-yl)-2,6-diazaspiro[3,4]octan-2-yl)-2-propen-1-one]
6 | 0.858 µM | 6.25 µM | 2.16 µM | C=CC(=O)N1CC2(CCN(c3nc4c(F)cccc4c(-c4c(C)ccc5[nH]ncc45)c3C#N)CC2(F)F)C1 [Example 1-43, 2-(5,5-difluoro-2-(2-propenoyl)-2,7-diazaspiro[3.5]nonan-7-yl)-8-fluoro-4-(5-methyl-1H-indazol-4-yl)-3-quinolinecarbonitrile]
7 | 6.83 µM | 12.5 µM | 6.4 µM | C=CC(=O)N1CC2(CCN(c3nc4c(F)cccc4c(-c4c(C)ccc5[nH]ncc45)c3C#N)C2=O)C1 [Example 1-44, 8-fluoro-4-(5-methyl-1H-indazol-4-yl)-2-(5-oxo-2-(2-propenoyl)-2,6-diazaspiro[3,4]octan-6-yl)-3-quinolinecarbonitrile]
8 | 0.032 µM | > 5 µM | 0.332 µM | C=CC(=O)N1CC2(CCN(c3nc4cc(OC)ccc4c(-c4c(C)ccc5[nH]ncc45)c3C#N)C2)C1 [Example 1-45, 7-methoxy-4-(5-methyl-1H-indazol-4-yl)-2-(2-(2-propenoyl)-2,6-diazaspiro[3.4]octan-6-yl)-3-quinolinecarbonitrile]
9 | 1.53 µM | 6.25 µM | 2.02 µM | Cc1ccc2[nH]ncc2c1-c1c(C#N)c(N2CCC3(CN(C(=O)/C=C/CN(C)C)C3)C2)nc2c(F)cccc12 [Example 1-46, 2-(2-((2E)-4-(dimethylamino)-2-butenoyl)-2,6-diazaspiro[3.4]octan-6-yl)-8-fluoro-4-(5-methyl-1H-indazol-4-yl)-3-quinolinecarbonitrile]
10 | 0.554 µM | > 5 µM | > 5 µM | C=CC(=O)N1CC2(CCN(c3cn4ncnc4c(-c4c(C)ccc5[nH]ncc45)c3C#N)C2)C1 [Example 1-48, 8-(5-methyl-1H-indazol-4-yl)-6-(2-(2-propenoyl)-2,6-diazaspiro[3.4]octan-6-yl)[1,2,4]triazolo[1,5-a]pyridine-7-carbonitrile]
11 | 0.124 µM | 13.4 µM | 24.6 µM | C=CC(=O)N1CC2(CCN(c3nc4c(F)cccc4c(-c4c(C)ccc5[nH]ncc45)c3C#N)C2CF)C1 (stereo not drawn) [Example 1-49, 8-fluoro-2-(5-(fluoromethyl)-2-(2-propenoyl)-2,6-diazaspiro[3.4]octan-6-yl)-4-(5-methyl-1H-indazol-4-yl)-3-quinolinecarbonitrile]
12 | 0.498 µM | > 5 µM | > 5 µM | C=CC(=O)N1CC2(CCN(c3nc4c(ccn4C)c(-c4c(C)ccc5[nH]ncc45)c3C#N)C2)C1 [Example 1-50, 1-methyl-4-(5-methyl-1H-indazol-4-yl)-6-(2-(2-propenoyl)-2,6-diazaspiro[3.4]octan-6-yl)-1H-pyrrolo[2,3-b]pyridine-5-carbonitrile]
13 | 0.244 µM | 39 µM | 1.89 µM | C=CC(=O)N1CC2(CCN(c3nc4c(N5CCCC5)ccn4c(-c4c(C)ccc5[nH]ncc45)c3C#N)C2)C1 [Example 1-52]
14 | 0.099 µM | > 50 µM | 13.4 µM | C=CC(=O)N1CC2(CCN(c3nc4c(N5CCN(C)CC5)ccn4c(-c4c(C)ccc5[nH]ncc45)c3C#N)C2)C1 [Example 1-53]
15 | 0.122 µM | > 5 µM | 0.976 µM | C=CC(=O)N1CC2(CCN(c3nc4cc(-c5nccs5)cn4c(-c4c(C)ccc5[nH]ncc45)c3C#N)C2)C1 [Example 1-54]
16 | 0.042 µM | 3.1 µM | 0.43 µM | C=CC(=O)N1CC2(CCN(c3nc4c(c(-c5c(C)ccc6[nH]ncc56)c3C#N)CCC(C)C4)C2)C1 (stereo not drawn) [Example 2-1, 2-(2-acryloyl-2,6-diazaspiro[3.4]octan-6-yl)-7-methyl-4-(5-methyl-1H-indazol-4-yl)-5,6,7,8-tetrahydroquinoline-3-carbonitrile]
17 | 0.694 µM | 6.25 µM | 1.73 µM | C=CC(=O)N1CC2(CCN(c3nc4ccccc4c(-c4c(C)ccc5cn[nH]c45)c3C#N)C2)C1 [Example 2-2, 4-(6-methyl-1H-indazol-7-yl)-2-(2-(2-propenoyl)-2,6-diazaspiro[3.4]octan-6-yl)-3-quinolinecarbonitrile]
18 | 0.537 µM | 3.12 µM | 0.693 µM | C=CC(=O)N1CC2(CCN(c3nc4ccccc4c(-c4cccc5sc(N)nc45)c3C#N)C2)C1 [Example 2-3, 4-(2-amino-1,3-benzothiazol-4-yl)-2-(2-(2-propenoyl)-2,6-diazaspiro[3.4]octan-6-yl)-3-quinolinecarbonitrile]
19 | 0.173 µM | 6.25 µM | 2.06 µM | C=CC(=O)N1CC2(CCN(c3nc4ccccc4c(-c4cc(O)cc5ccccc45)c3C#N)C2)C1 [Example 2-4, 4-(3-hydroxy-1-naphthalenyl)-2-(2-(2-propenoyl)-2,6-diazaspiro[3.4]octan-6-yl)-3-quinolinecarbonitrile]
20 | 0.042 µM | 6.25 µM | 0.943 µM | C=CC(=O)N1CC2(C1)CN(c1nc3c(c(-c4c(C)ccc5[nH]ncc45)c1C#N)CCC(C)C3)CC2(F)F (stereo not drawn) [Example 2-5, 2-(8,8-difluoro-2-(2-propenoyl)-2,6-diazaspiro[3.4]octan-6-yl)-7-methyl-4-(5-methyl-1H-indazol-4-yl)-5,6,7,8-tetrahydro-3-quinolinecarbonitrile]
21 | 0.056 µM | 6.25 µM | 0.237 µM | C=CC(=O)N1CC2(CCN(c3nc4ccccc4c(-c4c(C)c(C)cc5[nH]ncc45)c3C#N)C2)C1 [Example 2-6, 4-(5,6-dimethyl-1H-indazol-4-yl)-2-(2-(2-propenoyl)-2,6-diazaspiro[3.4]octan-6-yl)-3-quinolinecarbonitrile]
22 | 0.059 µM | 3.64 µM | 0.554 µM | C=CC(=O)N1CC2(CCN(c3nc4c(c(-c5c(C)ccc6[nH]ncc56)c3C#N)CCCC4)C2)C1 [Example 2-8, 4-(5-methyl-1H-indazol-4-yl)-2-(2-(2-propenoyl)-2,6-diazaspiro[3.4]octan-6-yl)-5,6,7,8-tetrahydro-3-quinolinecarbonitrile]
23 | 0.41 µM | 6.12 µM | 2.97 µM | C=CC(=O)N1CC2(CCN(c3nc4c(c(-c5cc(O)ccc5F)c3C#N)CCCC4)C2)C1 [Example 2-9, 4-(2-fluoro-5-hydroxyphenyl)-2-(2-(2-propenoyl)-2,6-diazaspiro[3.4]octan-6-yl)-5,6,7,8-tetrahydro-3-quinolinecarbonitrile]
24 | 0.044 µM | > 5 µM | 0.452 µM | C=CC(=O)N1CC2(CCN(c3nc4c(c(-c5c(C)ccc6[nH]ncc56)c3C#N)CCCCC4)C2)C1 [Example 2-10, 4-(5-methyl-1H-indazol-4-yl)-2-(2-(2-propenoyl)-2,6-diazaspiro[3.4]octan-6-yl)-6,7,8,9-tetrahydro-5H-cyclohepta[b]pyridine-3-carbonitrile]
25 | 0.15 µM | > 5 µM | 0.403 µM | C=CC(=O)N1CC2(CCN(c3nc4c(c(-c5cccc6cc(O)ccc56)c3C)CCC(C)(C)C4)C2)C1 [Example 2-13, 1-(6-(4-(6-hydroxy-1-naphthalenyl)-3,7,7-trimethyl-5,6,7,8-tetrahydro-2-quinolinyl)-2,6-diazaspiro[3.4]octan-2-yl)-2-propen-1-one]
26 | 0.104 µM | > 5 µM | 0.392 µM | C=CC(=O)N1CC2(CCN(c3nc4c(c(-c5c(C)ccc6cnn(C)c56)c3C)CCC(C)(C)C4)C2)C1 [Example 2-19, 1-(6-(4-(1,6-dimethyl-1H-indazol-7-yl)-3,7,7-trimethyl-5,6,7,8-tetrahydro-2-quinolinyl)-2,6-diazaspiro[3,4]octan-2-yl)-2-propen-1-one]
